Laboratory results: ChEMBL document CHEMBL1155719, “Synthesis of phakellistatin 11: a micronesia (Chuuk) marine sponge cyclooctapeptide” (2001)
Values after ≈ are worked out from the molar mass of the structure shown. Residues, ends and D or L forms follow the SMILES beside them.

Assays:
P388 [1] = assay: Cytotoxicity against mouse P388 cells; type: functional; conditions: read-out: ED50 (the source's name)
P388 [2] = assay: Cytotoxicity against mouse P388 cells by NMR biological activity study; type: functional; conditions: read-out: ED50 (the source's name)

SMILES | EC50 (P388 [1]) [µg/mL] | EC50 (P388 [2]) [µg/mL]
CC[C@H](C)[C@@H]1NC(=O)[C@@H]2CCCN2C(=O)[C@H](Cc2ccccc2)NC(=O)[C@@H]2CCCN2C(=O)[C@H](Cc2ccc(O)cc2)NC(=O)[C@@H]2CCCN2C(=O)[C@H]([C@@H](C)CC)NC1=O.Cl [PHAKELLISTATIN 2 (SYNTHETIC)] (cyclo(FPIIPYP)) | 24 | 
CC[C@H](C)[C@@H]1NC(=O)[C@@H]2CCCN2C(=O)[C@H](Cc2ccccc2)NC(=O)[C@@H]2CCCN2C(=O)[C@H](Cc2ccc(O)cc2)NC(=O)[C@@H]2CCCN2C(=O)[C@H]([C@@H](C)CC)NC1=O [PHAKELLISTATIN 2] (cyclo(FPIIPYP)) | 0.34 (≈ 0.411 µM) | 
CC[C@H](C)[C@@H]1NC(=O)[C@H](CC(C)C)NC(=O)[C@@H]2CCCN2C(=O)[C@H]([C@@H](C)CC)NC(=O)[C@@H]2CCCN2C(=O)[C@H](CO)NC(=O)[C@H](Cc2ccccc2)NC1=O [STYLOPEPTIDE] (cyclo(FSPIPLI)) | 0.1 (≈ 0.13 µM) | 6 (≈ 7.81 µM)
CC[C@H](C)[C@@H]1NC(=O)[C@H](C)NC(=O)[C@H](CC(C)C)NC(=O)[C@H](CO)NC(=O)[C@H](CC(N)=O)NC(=O)[C@H](Cc2ccccc2)NC(=O)[C@@H]2CCCN2C1=O [STYLOSTATIN 1] (cyclo(AIPFNSL)) | 10 (≈ 13.5 µM) | 
